# Experimental data from article doi:10.1101/2022.07.20.500776v2 (biorxiv, 2022).
# Legend:
# Format in all cases: biochemical
# [1] = target: T1, Vibrio alkaline phosphatase (VAP) (Vibrio sp. G15-21, UniProt Q93P54); assay: steady-state pNPP hydrolysis at […] nm, […] HEPES
# T1 sequence (Q93P54 20-521): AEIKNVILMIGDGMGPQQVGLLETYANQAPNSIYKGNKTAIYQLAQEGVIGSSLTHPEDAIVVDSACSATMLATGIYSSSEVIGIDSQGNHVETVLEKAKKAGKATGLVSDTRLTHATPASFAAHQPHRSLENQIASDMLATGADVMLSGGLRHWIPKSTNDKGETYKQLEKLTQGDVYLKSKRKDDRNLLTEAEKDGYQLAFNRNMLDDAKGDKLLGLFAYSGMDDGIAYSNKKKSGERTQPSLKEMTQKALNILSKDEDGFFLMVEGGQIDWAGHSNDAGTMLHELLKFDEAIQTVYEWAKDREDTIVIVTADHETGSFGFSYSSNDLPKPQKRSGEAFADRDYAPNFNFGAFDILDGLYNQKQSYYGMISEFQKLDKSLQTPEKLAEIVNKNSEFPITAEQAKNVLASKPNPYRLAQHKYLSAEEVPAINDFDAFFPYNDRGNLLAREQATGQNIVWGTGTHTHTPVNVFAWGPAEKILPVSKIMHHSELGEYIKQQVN
# [2] = target: T2, Vibrio alkaline phosphatase (VAP) (Vibrio sp. G15-21, UniProt Q93P54, Y241P); assay: steady-state pNPP hydrolysis at […] nm, Michaelis-Menten fit; conditions: pH 8.0, 100 mM Tris-HCl, 1 mM MgCl2, 10 °C, no added NaCl
# T2 sequence (Q93P54 20-521 Y241P): T1 sequence (Q93P54 20-521)
# [3] = target: T3, Vibrio alkaline phosphatase (VAP) (Vibrio sp. G15-21, UniProt Q93P54, A240D); assay: as above; conditions: pH 8.0, 100 mM Tris-HCl, 1 mM MgCl2, 10 °C, no added NaCl
# T3 sequence (Q93P54 20-521 A240D): T1 sequence (Q93P54 20-521)
# [4] = target: T4, Vibrio alkaline phosphatase (VAP) (Vibrio sp. G15-21, UniProt Q93P54, K441L); assay: as above; conditions: pH 8.0, 100 mM Tris-HCl, 1 mM MgCl2, 10 °C, no added NaCl
# T4 sequence (Q93P54 20-521 K441L): T1 sequence (Q93P54 20-521)
# [5] = target: T5, Vibrio alkaline phosphatase (VAP) (Vibrio sp. G15-21, UniProt Q93P54, K441E); assay: as above; conditions: pH 8.0, 100 mM Tris-HCl, 1 mM MgCl2, 10 °C, no added NaCl
# T5 sequence (Q93P54 20-521 K441E): T1 sequence (Q93P54 20-521)
# [6] = target: T6, Vibrio alkaline phosphatase (VAP) (Vibrio sp. G15-21, UniProt Q93P54, K441L/Y442F); assay: as above; conditions: pH 8.0, 100 mM Tris-HCl, 1 mM MgCl2, 10 °C, no added NaCl
# T6 sequence (Q93P54 20-521 K441L/Y442F): T1 sequence (Q93P54 20-521)
SMILES,Ki [1],Km [2],Km [3],Km [4],Km [5],Km [6]
O=S(=O)(O)CCN1CCN(CCO)CC1 [HEPES],21.3 mM,–,–,–,–,–
O=[N+]([O-])c1ccc(OP(=O)(O)O)cc1 [pNPP],–,4.9 ± 3.4 µM,12.8 ± 3.8 µM,6.6 ± 3.1 µM,7 ± 1.6 µM,8.8 ± 2.4 µM
